Laboratory results: the NIST ThermoML archive (doi:10.1021/je800244q)
“And” between values parts separate entries of the source, which are not always exact repeats. Equal entries are not always repeated.

How the values were obtained:
[1] = Liquid; for mass density: Vibrating tube method; for speed of sound: Pulse-echo method
[2] = refractive index (Na D-line) (dimensionless); settings: 298.15 K; 101.33 kPa; Liquid; Standard Abbe refractometry
[3] = molar heat capacity at constant pressure; settings: 101.33 kPa, Liquid, Small sample (50 mg) DSC

CC(O)CC(C)(C)O (centres undefined) [2-methyl-2,4-pentanediol]
[1]
Settings	mass density	speed of sound [m/s]
278.15 K, 101.33 kPa	932.344 kg/m3	–
283.15 K, 101.33 kPa	928.795 kg/m3	–
288.14 K, 100 kPa	–	1326.5
288.15 K, 101.33 kPa	925.238 kg/m3	1326.4
291.11 K, 100 kPa	–	1317.1
292.85 K, 101320 kPa	–	1675.8
292.86 K, 15200 kPa	–	1382.2
292.86 K, 30390 kPa	–	1443.5
292.86 K, 45590 kPa	–	1499.7
292.86 K, 60790 kPa	–	1551.7
292.86 K, 75990 kPa	–	1600.9
292.86 K, 91180 kPa	–	1646.9
293.14 K, 100 kPa	–	1310.7
293.15 K, 101.33 kPa	921.71 kg/m3 and 921.676 kg/m3	1310.7
298.15 K, 100 kPa	–	1295.2
298.15 K, 101.33 kPa	918.16 kg/m3 and 918.11 kg/m3	1295.2
298.15 K, 15200 kPa	–	1366.7
298.15 K, 30390 kPa	–	1428.8
298.15 K, 45590 kPa	–	1485.4
298.15 K, 60790 kPa	–	1538.1
298.15 K, 75990 kPa	–	1587.3
298.15 K, 91180 kPa	–	1634
298.15 K, 101320 kPa	–	1663.4
301.02 K, 100 kPa	–	1286.3
303.13 K, 30390 kPa	–	1414.6
303.14 K, 15200 kPa	–	1351.4
303.14 K, 45590 kPa	–	1472.1
303.14 K, 60790 kPa	–	1525.2
303.14 K, 75990 kPa	–	1575.1
303.14 K, 91180 kPa	–	1622.1
303.14 K, 101320 kPa	–	1651.8
303.15 K, 100 kPa	–	1279.9
303.15 K, 101.33 kPa	914.59 kg/m3	1279.8
303.16 K, 101.33 kPa	914.548 kg/m3	–
308.13 K, 15200 kPa	–	1336.9
308.13 K, 30390 kPa	–	1400.8
308.13 K, 45590 kPa	–	1459.2
308.13 K, 60790 kPa	–	1513
308.13 K, 75990 kPa	–	1563.1
308.13 K, 91180 kPa	–	1610.8
308.13 K, 101320 kPa	–	1640.8
308.15 K, 100 kPa	–	1264.7
308.15 K, 101.33 kPa	910.981 kg/m3 and 911.02 kg/m3	1264.7
308.18 K, 100 kPa	–	1264.6
313.1 K, 15200 kPa	–	1323
313.1 K, 30390 kPa	–	1387.6
313.1 K, 45590 kPa	–	1446.5
313.1 K, 60790 kPa	–	1501
313.1 K, 75990 kPa	–	1551.6
313.1 K, 101320 kPa	–	1629.9
313.11 K, 91180 kPa	–	1599.6
313.15 K, 101.33 kPa	907.43 kg/m3 and 907.411 kg/m3	1249.6
313.16 K, 100 kPa	–	1249.6
318.15 K, 101.33 kPa	903.84 kg/m3 and 903.834 kg/m3	1234.7
318.19 K, 100 kPa	–	1234.6
318.29 K, 15200 kPa	–	1308.8
318.29 K, 30390 kPa	–	1374.5
318.29 K, 45590 kPa	–	1434.2
318.29 K, 60790 kPa	–	1489.3
318.29 K, 75990 kPa	–	1539.5
318.29 K, 91180 kPa	–	1588.5
318.29 K, 101320 kPa	–	1619.2
323.15 K, 101.33 kPa	900.247 kg/m3	–
328.16 K, 101.33 kPa	896.647 kg/m3	–
333.16 K, 101.33 kPa	893.033 kg/m3	–
338.15 K, 101.33 kPa	889.4 kg/m3	–
343.15 K, 101.33 kPa	885.746 kg/m3	–
348.15 K, 101.33 kPa	882.068 kg/m3	–
353.15 K, 101.33 kPa	878.362 kg/m3	–
358.15 K, 101.33 kPa	874.626 kg/m3	–

Settings	refractive index
[2]	1.4258

[3]
Settings	molar heat capacity at constant pressure [J/K/mol]
284.16 K	250.63
288.14 K	254.33
293.14 K	258.4
298.16 K	262.4
303.15 K	266.42
308.15 K	270.35
313.15 K	274.7
318.15 K	279.12
323.15 K	283.62
328.15 K	288.35
333.15 K	293.21
338.15 K	298.13
343.15 K	303.01
348.15 K	307.95
353.14 K	314.8
358.16 K	318.39
